The text below walks through data of patent publication US4324796A, “Substituted oxiranecarboxylic acids, their use and medicaments containing them” (BYK Gulden Lomberg Chemische Fabrik Gesellschaft mit …, priority 1979, dated 1982).

Series [1] deals with blood glucose concentration. Briefly: Blood glucose lowering after single oral administration, fasting metabolically healthy rats.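 As to all read-outs here: young male Sprague-Dawley rats fasted 18 h, blood glucose sampled before dosing and at 3 and 5 h afterwards, compared with a solvent-treated control group.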 As to conditions: for ED50: Rattus norvegicus, po, 5 h; for ED50 (15%): dose which effects a lowering of the blood glucose concentration by 15% in 50% of the animals: Table II, rats p.o., α-methylenecarboxylic acid intermediates.
A short description of series [2]: Acute toxicity, guinea pig, peroral. As to conditions: in vivo, po; Table III; guinea pig p.o.; preliminary results. An excerpt:
Column C provides data relating to acute toxicity (LD50; guinea pig, peroral administration).

Series [3] has as its system blood glucose concentration. The series can be described thus: Blood glucose lowering after single oral administration, fasting metabolically healthy guinea pigs. To be noted: Cavia porcellus. Format: in vivo, guinea pigs (young cross-bred male).
The test system of series [4] is blood glucose concentration. To be noted: guinea pig, in vivo, po; cited from earlier work.
Another series relates to guinea pig. To be noted: Table III; guinea pig p.o.; cited according to Proske et al. 1962; cited from earlier work.
The next series is described as follows: in vivo. To be noted: mouse, po, Table I, mice p.o., 7 days observation, read-out: LD50 (acute toxicity). As to the method:
2. Determination of the toxicity
Various doses of the substances (volume: 10 ml/kg) are administered orally by means of a stomach tube. The observation time is 7 days.

Series [5] relates to blood glucose concentration. As to conditions: rat, in vivo, po, 300 min.
The mark [6] stands for this setting: read-out: ED50 (15%): dose which effects a lowering of the blood glucose concentration by at least 15% in 50% of the animals.
Where [7] appears, read: read-out: ED50 (25%): dose which effects a lowering of the blood glucose concentration by at least 25% in 50% of the animals.
[8] abbreviates: 5 h, read-out: ED50 (15%): dose which effects a lowering of the blood glucose concentration by at least 15% in 50% of the animals.
Where [9] appears, read: 5 h, read-out: ED50 (25%): dose which effects a lowering of the blood glucose concentration by at least 25% in 50% of the animals.
[10] abbreviates: Table III B, guinea pig p.o., single dose, 5 hours, vs control group, read-out: ED50 (15%): dose which effects a lowering of the blood glucose concentration by at least 15% in 50% of the animals.

Read-outs that look alike come from different tables or passages of the source.

Turning to `O=C([O-])C1(CCCCCc2ccc(Cl)cc2)CO1.[Na+]` (stereo not drawn), the ED50 in series [1] (setting [6]) worked out at 5 mg/kg; in series [1] (setting [7]), 16 mg/kg; in series [3] (setting [8]), 3 mg/kg; in series [3] (setting [9]) it was 8 mg/kg. Also, the LD50 in series [2] was in the range of 300 to 400 mg/kg.
For `O=C([O-])C1(CCCc2ccc(Cl)cc2)CO1.[Na+]` (stereo not drawn), in that order: 20 mg/kg, 41 mg/kg, 12 mg/kg, 26 mg/kg and 500 to 600 mg/kg.
For `O=C([O-])C1(CCCc2cccc(C(F)(F)F)c2)CO1.[Na+]` (stereo not drawn), in that order: 14 mg/kg, 23 mg/kg, 6 mg/kg, 11 mg/kg and 300 to 400 mg/kg.
Consider `O=C([O-])C1(CCCCCc2ccccc2)CO1.[Na+]` (stereo not drawn), for which the ED50 in series [1] (setting [6]) was found to be 2 mg/kg; in series [1] (setting [7]) it was 12 mg/kg; in series [3] (setting [8]) it was 3 mg/kg; in series [3] (setting [9]) it was 7 mg/kg. In series [2], this molecule registered an LD50 of 500 to 600 mg/kg.
“2-(3-Phenylpropyl)oxirane-2-carboxylic acid methyl ester [Example 13]”: in series [1], the “ED50 (15%): dose which effects a lowering of the blood glucose concentration by 15% in 50% of the animals” value was determined as 252 mg/kg.
The same measure, in the same setting: with “2-Benzyloxirane-2-carboxylic acid ethyl ester [Example 15]” the figure was 80 mg/kg.
On to `CCCCNC(=N)NC(=N)N` [Serial No. 1, Buformin, reference compound], for which the “ED50 (25%): dose which effects a lowering of the blood glucose concentration by 25% in 50% of the animals” value in series [4] was 40 to 50 mg/kg. For the same molecule, the ED50 in series [1] (setting [6]) is more than 100 mg/kg; in series [1] (setting [7]), 194 mg/kg. The “LD50 (acute toxicity)” value with guinea pig is on record as 58 mg/kg.
As for `[H]/N=C(/N)N/C(=N/[H])NCCc1ccccc1` [Serial No. 2, Phenformin, reference compound], the ED50 was 20 to 25 mg/kg in series [4], more than 150 mg/kg in series [1] (setting [6]) and more than 343 mg/kg in series [1] (setting [7]).
As to `CCOC(=O)C1(CCCc2ccc(Cl)cc2)CO1` (stereo not drawn) [Serial No. 3, 2-[3-(4-Chlorophenyl)propyl]oxirane-2-carboxylic acid ethyl ester], the ED50 in series [1] (setting [6]) turned out to be 40 mg/kg; in series [1] (setting [7]), 54 mg/kg; in series [3] (setting [10]) it was 11 mg/kg. The LD50 in the series “in vivo” stood at 730 mg/kg.
For `CCOC(=O)C1(CCCc2cccc(C(F)(F)F)c2)CO1` (stereo not drawn) [Serial No. 5, 2-[3-(3-Trifluoromethylphenyl)propyl]oxirane-2-carboxylic acid ethyl ester], in that order: 6 mg/kg, 24 mg/kg, 3 mg/kg and approximately 300 mg/kg.
For `CCOC(=O)C1(CCCCCc2ccccc2)CO1` (stereo not drawn) [Serial No. 7, 2-(5-Phenylpentyl)oxirane-2-carboxylic acid ethyl ester], the ED50 was 21 mg/kg in series [5], 10 mg/kg in series [1] (setting [6]) and 11 mg/kg in series [3] (setting [10]). For the same molecule, in “in vivo”, the LD50 is 230 mg/kg.
With `CCOC(=O)C1(CCCCCc2ccc(Cl)cc2)CO1` (stereo not drawn) [Serial No. 9, 2-[5-(4-Chlorophenyl)pentyl]oxirane-2-carboxylic acid ethyl ester], the ED50 in series [1] (setting [6]) worked out at 3 mg/kg; in series [1] (setting [7]) it was 24 mg/kg; in series [3] (setting [10]) it was 5 mg/kg. Besides, in “in vivo”, the LD50 came to 275 mg/kg.
Regarding `CCOC(=O)C1(CCCCc2ccccc2)CO1` (stereo not drawn) [Serial No. 11, 2-(4-Phenylbutyl)oxirane-2-carboxylic acid ethyl ester], the ED50 in series [1] (setting [6]) was 67 mg/kg.
Still for that read-out and setting: the figure for `CCOC(=O)C1(CCCc2cccc(Cl)c2)CO1` (stereo not drawn) [Serial No. 12, 2-[3-(3-Chlorophenyl)propyl]oxirane-2-carboxylic acid ethyl ester] is 59 mg/kg.
As to “Sodium 2-(3-phenylpropyl)oxirane-2-carboxylate [Example 14]”, the “ED50 (15%): dose which effects a lowering of the blood glucose concentration by 15% in 50% of the animals” value in series [1] is given as more than 253 mg/kg.

The LD50 is the dose at which mortality reaches 50%.
